The values that follow come from ChEMBL document CHEMBL5512654, “Discovery of novel Thymol-TPP antibiotics that eradicate MRSA persisters” (Eur J Med Chem, 2024).

In data set [1] the test system is Staphylococcus aureus. The data set can be described thus: In vivo antibacterial efficacy in bioluminescent Staphylococcus aureus Xen29 infected in mouse topical infection model assessed as reduction in number of colonies at 8 mg/kg, sc treated 16, 24, 36, 48, […] hrs post-infection measured after 84 hrs relative to control. The class given is functional.

Data set [2] deals with Staphylococcus aureus. Briefly: Antibacterial activity against Staphylococcus aureus ATCC 43300 assessed as inhibition of bacterial growth measured after 18 hrs by microplate reader. The class given is functional. The note with it: read-out: MIC100.
Data set [3] concerns Staphylococcus aureus. Briefly: Antibacterial activity against methicillin-resistant Staphylococcus aureus USA 300 assessed as inhibition of bacterial growth measured after 18 hrs by microplate reader. The class given is functional. To be noted: read-out: MIC100.
Data set [4] relates to Staphylococcus aureus. Briefly: Antibacterial activity against methicillin-resistant Staphylococcus aureus USA 3390 assessed as inhibition of bacterial growth measured after 18 hrs by microplate reader. To be noted: read-out: MIC100. The class given is functional.
Data set [5] deals with Pseudomonas aeruginosa. Briefly: Antibacterial activity against Pseudomonas aeruginosa ATCC 27853 assessed as inhibition of bacterial growth measured after 18 hrs by microplate reader. Format: functional.
For data set [6], the system named is Pseudomonas aeruginosa. Briefly: Antibacterial activity against Pseudomonas aeruginosa 535 assessed as inhibition of bacterial growth measured after 18 hrs by microplate reader. Format: functional.
The test system of data set [7] is Klebsiella pneumoniae. The data set can be described thus: Antibacterial activity against Klebsiella pneumonia ATCC 700603 assessed as inhibition of bacterial growth measured after 18 hrs by microplate reader. Format: functional.
For data set [8], the system named is Klebsiella pneumoniae. The data set can be described thus: Antibacterial activity against Klebsiella pneumonia 3026 assessed as inhibition of bacterial growth measured after 18 hrs by microplate reader. Format: functional.
Data set [9] relates to Acinetobacter baumannii. The data set can be described thus: Antibacterial activity against Acinetobacter baumannii ATCC 19606 assessed as inhibition of bacterial growth measured after 18 hrs by microplate reader. Format: functional.
Data set [10] relates to Acinetobacter baumannii. The data set can be described thus: Antibacterial activity against Acinetobacter baumannii ATCC 1318 assessed as inhibition of bacterial growth measured after 18 hrs by microplate reader. The class given is functional.
For data set [11], the system named is Staphylococcus aureus. The data set can be described thus: Bactericidal activity against methicillin-resistant Staphylococcus aureus USA 3390 assessed as reduction in CFU at 1 times of MIC concentration measured for short time by time-kill kinetics assay. The class given is functional, organism-based.
The test system of data set [12] is Staphylococcus aureus. The data set can be described thus: Bactericidal activity against methicillin-resistant Staphylococcus aureus USA 3390 assessed as reduction in CFU at 4 to 8 times of MIC concentration measured after 24 hrs by time-kill kinetics assay. The class given is functional, organism-based.
For data set [13], the system named is Staphylococcus aureus. The data set can be described thus: Antibacterial activity against methicillin-resistant Staphylococcus aureus USA 3390 assessed as resistance development measured after 30 generations. The class given is functional, organism-based.
In data set [14] the test system is Escherichia coli. The data set can be described thus: Antibacterial activity against Escherichia coli ATCC 25922 assessed as inhibition of bacterial growth measured after 18 hrs by microplate reader. The class given is functional. To be noted: read-out: MIC100.
Data set [15] has as its system Escherichia coli. The data set can be described thus: Antibacterial activity against Escherichia coli 53328 assessed as inhibition of bacterial growth measured after 18 hrs by microplate reader. The note with it: read-out: MIC100. The class given is functional.
Data set [16] in a line: Cytotoxicity against human L02 cells incubated for 72 hrs by MTT dye reduction assay. Format: toxicity, cell-based. On the technique in general: Formazan colour is commonly taken as a measure of viable cells.

SMILES strings stand for the structures. ≈ marks a conversion by molar mass, not a printed value. Calls of active or inactive are those of the source. No cut-off for these calls is given here. Bounds are passed on as bounds.

As for `CN[C@H](CC(C)C)C(=O)N[C@H]1C(=O)N[C@@H](CC(N)=O)C(=O)N[C@H]2C(=O)N[C@H]3C(=O)N[C@H](C(=O)N[C@H](C(=O)O)c4cc(O)cc(O)c4-c4cc3ccc4O)[C@H](O)c3ccc(c(Cl)c3)Oc3cc2cc(c3O[C@@H]2O[C@H](CO)[C@@H](O)[C@H](O)[C@H]2O[C@H]2C[C@](C)(N)[C@H](O)[C@H](C)O2)Oc2ccc(cc2Cl)[C@H]1O`, the AC200 entry in the data set on Staphylococcus aureus [1] was “Active”.
Take `O=C(O)c1cn(C2CC2)c2cc(N3CCNCC3)c(F)cc2c1=O` [CIPROFLOXACIN]: the MIC in the data set with Staphylococcus aureus [2] stood at 2 µg/mL (≈ 6.04 µM); in the data set with Staphylococcus aureus [3] it was 1 µg/mL (≈ 3.02 µM); with Staphylococcus aureus [4] it was 1 µg/mL (≈ 3.02 µM); in the data set on Pseudomonas aeruginosa [5] (read-out: MIC) it was 1 µg/mL (≈ 3.02 µM); with Pseudomonas aeruginosa [6] (read-out: MIC), 1 µg/mL (≈ 3.02 µM); in the data set on Klebsiella pneumoniae [7] (read-out: MIC) it was 0.12 µg/mL (≈ 0.362 µM). Besides, the figures for the MIC with Klebsiella pneumoniae [8] (read-out: MIC), in the data set with Acinetobacter baumannii [9] (read-out: MIC) and in the data set on Acinetobacter baumannii [10] (read-out: MIC) were 0.06 µg/mL (≈ 0.181 µM), 0.5 µg/mL (≈ 1.51 µM) and 1 µg/mL (≈ 3.02 µM), respectively. The outcome in the data set with Staphylococcus aureus [11], in the data set on Staphylococcus aureus [12] and with Staphylococcus aureus [13] was Active.
Regarding `Cc1cc(OC(=O)CC[P+](c2ccccc2)(c2ccccc2)c2ccccc2)c(C(C)C)cc1-c1ccccc1.[Br-]`, the MIC was 4 µg/mL in the data set with Escherichia coli [14]; above 64 µg/mL with Escherichia coli [15]; above 64 µg/mL with Pseudomonas aeruginosa [5] (read-out: MIC100); above 64 µg/mL with Pseudomonas aeruginosa [6] (read-out: MIC100); 32 µg/mL in the data set with Klebsiella pneumoniae [7] (read-out: MIC100); above 64 µg/mL with Klebsiella pneumoniae [8] (read-out: MIC100). In addition, the values for the MIC in the data set with Acinetobacter baumannii [9] (read-out: MIC100) and in the data set on Acinetobacter baumannii [10] (read-out: MIC100) were 32 µg/mL and 16 µg/mL, respectively. This molecule also showed a concentration for half-maximal inhibition (IC50) at 72 h in data set [16] of 7.96 µg/mL.
As for `Cc1cc(OC(=O)CCCCCCCC[P+](c2ccccc2)(c2ccccc2)c2ccccc2)c(C(C)C)cc1-c1ccccc1.[Br-]`, the MIC stood at 4 µg/mL in the data set on Escherichia coli [14]; 16 µg/mL with Escherichia coli [15]; 64 µg/mL with Pseudomonas aeruginosa [5] (read-out: MIC100); 32 µg/mL in the data set on Pseudomonas aeruginosa [6] (read-out: MIC100); 64 µg/mL in the data set on Klebsiella pneumoniae [7] (read-out: MIC100); 64 µg/mL in the data set on Klebsiella pneumoniae [8] (read-out: MIC100). Besides, the MIC was determined as 16 µg/mL with Acinetobacter baumannii [9] (read-out: MIC100) and 8 µg/mL in the data set with Acinetobacter baumannii [10] (read-out: MIC100). In [16], it took 13.2 µg/mL to reach half-maximal inhibition (IC50 at 72 h).

Usually IC50 stands for the midpoint of a concentration-inhibition curve. A low value points to greater potency in that assay.
